This assay concerns the target Aβ40 (amyloid β-protein, monomer) (Homo sapiens, UniProt P05067). The assay is described as follows: […]-1H HSQC NMR titration. Format: binding.

Molecules are shown by their SMILES.

Experimental findings from publication PMC4082028 (Biochemistry, 2013) are described below.

Broadly, the Kd is the free concentration of one partner at which half of the binding sites on the other are occupied at equilibrium, for simple one-to-one binding. Low values mean higher affinity, high ones lower affinity.

Sequence of Aβ40 (amyloid β-protein, monomer) (P05067 672-711 limits assumed): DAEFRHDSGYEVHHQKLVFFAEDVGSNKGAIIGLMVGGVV

`COc1ccc(/C=C/C(=O)Nc2ccccc2C(=O)O)cc1OC` [tranilast, N-[3,4-Dimethoxycinnamoyl]-anthranilic acid] displayed a dissociation constant Kd of 310 ± 130 µM.
